Measurements from PubChem BioAssay AID2060336 (Molecular Pharmacology Branch, DTP, NCI, 2025).

Test system: 958767-090-R-J1-PDC spheroid growth
Assay: Anticancer human tumor 958767-090-R-J1-PDC patient-derived head and neck squamous carcinoma cell line growth inhibition [IpAb]
Details: spheroids with HUVEC and MSC; for IC50: curve of first compound; for viability, T/C: stronger effect = lower value; active = viability on the fitted dose curve at most 10% of control; inactive = the rest
Procedure, shortened: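 Spheroids of 60% malignant cells, 25% HUVEC and 15% MSC were exposed to targeted agents combined with ipatasertib or abemaciclib. Doses started at or near clinical Cmax (10 microM when unknown) and fell in half-log steps.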
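Note: spheroids exposed to agents for 7 days.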
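Throughout, for viability, T/C: 100% = DMSO vehicle control wells.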

C=CCn1c(=O)c2cnc(Nc3ccc(N4CCN(C)CC4)cc3)nc2n1-c1cccc(C(C)(C)O)n1 + CCN1CCN(Cc2ccc(Nc3ncc(F)c(-c4cc(F)c5nc(C)n(C(C)C)c5c4)n3)nc2)CC1
250 nM: IC50 (second compound 0.0316 µM)
994 nM: IC50 (second compound 1 µM)
inactive: viability, T/C (second compound 0.01 µM, first compound 0.0316 µM) 83.8% | viability, T/C (second compound 0.01 µM, first compound 0.1 µM) 69.3% | viability, T/C (second compound 0.01 µM, first compound 0.316 µM) 43% | viability, T/C (second compound 0.01 µM, first compound 1 µM) 29% | viability, T/C (second compound 0.01 µM, first compound 3.16 µM) 26.7% | viability, T/C (second compound 0.01 µM, first compound 10 µM) 21.3% | viability, T/C (second compound 0.0316 µM, first compound 0.0316 µM) 79.6% | viability, T/C (second compound 0.0316 µM, first compound 0.1 µM) 67.3% | viability, T/C (second compound 0.0316 µM, first compound 0.316 µM) 42.9% | viability, T/C (second compound 0.0316 µM, first compound 1 µM) 34.7% | viability, T/C (second compound 0.0316 µM, first compound 3.16 µM) 25% | viability, T/C (second compound 0.0316 µM, first compound 10 µM) 21.5% | viability, T/C (second compound 0.1 µM, first compound 0.0316 µM) 65.6% | viability, T/C (second compound 0.1 µM, first compound 0.1 µM) 64% | viability, T/C (second compound 0.1 µM, first compound 0.316 µM) 47.1% | viability, T/C (second compound 0.1 µM, first compound 1 µM) 40.1% | viability, T/C (second compound 0.1 µM, first compound 3.16 µM) 31.9% | viability, T/C (second compound 0.1 µM, first compound 10 µM) 19.7% | viability, T/C (second compound 0.316 µM, first compound 0.0316 µM) 65% | viability, T/C (second compound 0.316 µM, first compound 0.1 µM) 47.1% | viability, T/C (second compound 0.316 µM, first compound 0.316 µM) 44.1% | viability, T/C (second compound 0.316 µM, first compound 1 µM) 46.7% | viability, T/C (second compound 0.316 µM, first compound 3.16 µM) 33.2% | viability, T/C (second compound 0.316 µM, first compound 10 µM) 21.5% | viability, T/C (second compound 1 µM, first compound 0.0316 µM) 77.3% | viability, T/C (second compound 1 µM, first compound 0.1 µM) 68.2% | viability, T/C (second compound 1 µM, first compound 0.316 µM) 52.3% | viability, T/C (second compound 1 µM, first compound 1 µM) 55% | viability, T/C (second compound 1 µM, first compound 3.16 µM) 42.8% | viability, T/C (second compound 1 µM, first compound 10 µM) 34.3%
338 nM: IC50 (second compound 0.1 µM)
203 nM: IC50 (second compound 0.316 µM)
237 nM: IC50 (second compound 0.01 µM)

Cn1cnc2c(F)c(Nc3ccc(Br)cc3Cl)c(C(=O)NOCCO)cc21 + CCN1CCN(Cc2ccc(Nc3ncc(F)c(-c4cc(F)c5nc(C)n(C(C)C)c5c4)n3)nc2)CC1
29.3 nM: IC50 (second compound 0.01 µM)
12.6 nM: IC50 (second compound 0.1 µM)
124 nM: IC50 (second compound 1 µM)
27 nM: IC50 (second compound 0.0316 µM)
inactive: viability, T/C (second compound 0.01 µM, first compound 0.00949 µM) 71% | viability, T/C (second compound 0.01 µM, first compound 0.03 µM) 49.4% | viability, T/C (second compound 0.01 µM, first compound 0.0949 µM) 35.2% | viability, T/C (second compound 0.01 µM, first compound 0.3 µM) 34.5% | viability, T/C (second compound 0.01 µM, first compound 0.949 µM) 30% | viability, T/C (second compound 0.01 µM, first compound 3 µM) 23.2% | viability, T/C (second compound 0.0316 µM, first compound 0.00949 µM) 65% | viability, T/C (second compound 0.0316 µM, first compound 0.03 µM) 47.7% | viability, T/C (second compound 0.0316 µM, first compound 0.0949 µM) 36.9% | viability, T/C (second compound 0.0316 µM, first compound 0.3 µM) 29.7% | viability, T/C (second compound 0.0316 µM, first compound 0.949 µM) 29.3% | viability, T/C (second compound 0.0316 µM, first compound 3 µM) 19.7% | viability, T/C (second compound 0.1 µM, first compound 0.00949 µM) 53.1% | viability, T/C (second compound 0.1 µM, first compound 0.03 µM) 41.9% | viability, T/C (second compound 0.1 µM, first compound 0.0949 µM) 34.9% | viability, T/C (second compound 0.1 µM, first compound 0.3 µM) 34.1% | viability, T/C (second compound 0.1 µM, first compound 0.949 µM) 26.7% | viability, T/C (second compound 0.1 µM, first compound 3 µM) 23.5% | viability, T/C (second compound 0.316 µM, first compound 0.00949 µM) 51.9% | viability, T/C (second compound 0.316 µM, first compound 0.03 µM) 41.9% | viability, T/C (second compound 0.316 µM, first compound 0.0949 µM) 40.1% | viability, T/C (second compound 0.316 µM, first compound 0.3 µM) 36.1% | viability, T/C (second compound 0.316 µM, first compound 0.949 µM) 28% | viability, T/C (second compound 0.316 µM, first compound 3 µM) 21.2% | viability, T/C (second compound 1 µM, first compound 0.00949 µM) 69.3% | viability, T/C (second compound 1 µM, first compound 0.03 µM) 67.2% | viability, T/C (second compound 1 µM, first compound 0.0949 µM) 51.9% | viability, T/C (second compound 1 µM, first compound 0.3 µM) 42.8% | viability, T/C (second compound 1 µM, first compound 0.949 µM) 44.5% | viability, T/C (second compound 1 µM, first compound 3 µM) 37%
9.64 nM: IC50 (second compound 0.316 µM)
